In patent publication US10485800B2, “Mixed lineage kinase inhibitors for HIV/AIDS therapies” (UNIVERSITY OF ROCHESTER, priority 2012, dated 2019):

Tests used:
[1] = test system: primary rat hippocampal neurons; conditions: primary rat hippocampal and dorsal root ganglion neurons; cited from earlier work
MLK3 = MLK3 (Rattus norvegicus (Rat), UniProt Q66HA1); conditions: primary rat neurons; cited from earlier work
HIV-1 = conditions: in vivo model of HIV-1 infection; cited from earlier work
Rab7 = Rab7 (Homo sapiens (Human), UniProt P51149); assay: Proteomic analyses of human monocyte-derived macrophages (Rab7); format: cell-based; conditions: HIV-1 infected MDM
Description: FIG. 7 (top) is a schematic of a proteomic analysis.
FIG. 8 is a photograph from a Western blot validation for Rab7a. Rab7A (Protein KB) is a key regulator in endolysosomal trafficking. It governs early-to-late endosomal maturation, microtubule minus-end as well as plus-end directed endosomal migration and positioning, and endosome-lysosome transport.
(§1) Higher plasma drug levels correspond to lowest viral load.

Tat = Tat (Human immunodeficiency virus type 1 group M subtype B (isolate HXB2) (HIV-1), UniProt P04608); assay: Tat injection model, synapse protection and neuroinflammation (FIGS. 10-24); format: in vivo
Description: FIG. 19 is a group of photographs showing IHC synapse protection. Map2 staining 28 days post injection at the injection site. Pre/continuous treatment with Compound AH at 10 mg/kg i.p. q 12, 9 μg of Tat injected at 80 nL/min. The same Compound AH/Tat treatment paradigm was used in FIGS. 20-24.
(FIGS. 10-24). The compound is a selectively non-selective inhibitor for a subset of kinases that have pathogenetic roles for activation of immune effector cells with damage to target cells (neurons, myocytes, pancreatic acinar cells) in both central and peripheral degenerative diseases with autoimmune components.

HIV-1 ADA = assay: HIV-1 infection model in humanized mice; format: in vivo; conditions: nanoART 6 weeks s.c.; Compound AH 10 mg/kg i.p. once daily during final two weeks
Description: The MLK inhibitor Compound AH was used in test with an animal model for HIV-1 infection. Specifically, 22 week old humanized mice (NOD/scidIL-2Rγc^null (NSG) mice stably engrafted with human CD34+ hematopoeitic stem cells were infected with HIV-1 ADA (Gorantla et al., J. Virol. 81:2700-2712, 2007). The mice were then treated with the nanoformulated antiretroviral therapy comprising atazanavir and ritonavir (nanoART) for 6 weeks by s.c. injections (6×/week). During the final two weeks, the animals also received the MLK-3 inhibitor Compound AH by once daily injection (10 mg/kg i.p.). Viral RNA load was measured over time in plasma from these mice, and productively infected cells were counted in tissues harvested from animals at sacrifice (including lymph node (FIG. 4) and spleen (FIG. 5)).
Further, starting at 10 weeks post infection, when the mice were at the peak of their viral load (VL) the MLK-3 inhibitor Compound AH was administered daily and the nanoART was administered weeks for three weeks. Peripheral VL ratio of human CD4+ and CD8+ T lymphocyte, drug levels in plasma and organs and pathological changes in lymphoid and brain tissues were investigated.
as §1

MOG35-55 EAE mice = assay: MOG35-55 EAE model; format: in vivo
Description: Hippocampal synaptic injury in MOG35-55 EAE mice correlates with microglial activation and may occur independent of myelin loss. […] Protective effects in EAE hippocampal gray matter appear dissociable from those in the spinal cord. Many interventions targeting microglial function affect EAE motor deficits and the spinal cord inflammation that those largely reflect.

Human monocytes = assay: Tat-assays: Tat-induced cytokine and chemokine production in human monocytes (Luminex); format: cell-based; conditions: 50 nM HIV-1 Tat, 8 hours
Description: Human monocytes were isolated from freshly collected whole blood using CD14 immunomagnetic beads (Miltenyi-Biotec). Cells were then plated in 24-well plates at 5×10^4 cells/well in RPMI-1640 culture medium supplemented with 10% fetal bovine serum (FBS). The specified compounds were then added to the cultures at the indicated concentrations (100, […], 1000 nM); in control wells, no compound was added. 30 min later, HIV-1 Tat was added to a final concentration of 50 nM the cells were incubated for 8 hours (in control wells, nothing was added [NT]). Cell supernatants were then collected, centrifuged 15 min at 13000 rpm to remove debris, transferred to new microcentrifuge tubes and frozen at −20° C. A Luminex bead array assay was then performed, for the indicated chemokines and cytokines. Results were measured in triplicate or quadruplicate, and data are presented as mean values; error bars denote the standard deviation. Note that similar results were obtained with monocytes derived from multiple (n>5) different donors, as well as in terminally differentiated monocyte-derived macrophages (data not shown due to space limitations). *:p<0.05; one-way ANOVA with Bonferroni's correction (when compared to Tat only control). See FIG. 11 (tat-induced cytokine production) and FIG. 12 (tat-induced chemokine production).

[2] = test system: Rab 7 late endosomal compartment; assay: Rab studies: nanoART drug levels in endosomal compartments; format: cell-based
Description: FIG. 25 is a graph showing that Compound AH is able to sustain the presence of atazanavir/ritonavir nanoART in late endosomes. Concentrations of 1 and 10 ng/mL of Compound AH increases drug levels for more than 10 days in these compartments. This is significant and reproducible. […] Thus more of the drug is present in there for longer time periods, boosting efficacy and leading to reduction of residual virus.
The Rab 7 compartment increased marked in size and expression (protein content) as a result of HIV infection. […] That is also where anti-HIV proteases work and where their sites of actions lie. […] This signals that the combination has eliminated or nearly so, the ability of virus to assemble in this compartment.

Sequence of Tat (P04608 whole entry, looked up): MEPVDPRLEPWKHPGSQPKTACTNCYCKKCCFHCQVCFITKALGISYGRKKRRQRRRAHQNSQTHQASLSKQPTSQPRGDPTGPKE
Sequence of MLK3 (Q66HA1 whole entry): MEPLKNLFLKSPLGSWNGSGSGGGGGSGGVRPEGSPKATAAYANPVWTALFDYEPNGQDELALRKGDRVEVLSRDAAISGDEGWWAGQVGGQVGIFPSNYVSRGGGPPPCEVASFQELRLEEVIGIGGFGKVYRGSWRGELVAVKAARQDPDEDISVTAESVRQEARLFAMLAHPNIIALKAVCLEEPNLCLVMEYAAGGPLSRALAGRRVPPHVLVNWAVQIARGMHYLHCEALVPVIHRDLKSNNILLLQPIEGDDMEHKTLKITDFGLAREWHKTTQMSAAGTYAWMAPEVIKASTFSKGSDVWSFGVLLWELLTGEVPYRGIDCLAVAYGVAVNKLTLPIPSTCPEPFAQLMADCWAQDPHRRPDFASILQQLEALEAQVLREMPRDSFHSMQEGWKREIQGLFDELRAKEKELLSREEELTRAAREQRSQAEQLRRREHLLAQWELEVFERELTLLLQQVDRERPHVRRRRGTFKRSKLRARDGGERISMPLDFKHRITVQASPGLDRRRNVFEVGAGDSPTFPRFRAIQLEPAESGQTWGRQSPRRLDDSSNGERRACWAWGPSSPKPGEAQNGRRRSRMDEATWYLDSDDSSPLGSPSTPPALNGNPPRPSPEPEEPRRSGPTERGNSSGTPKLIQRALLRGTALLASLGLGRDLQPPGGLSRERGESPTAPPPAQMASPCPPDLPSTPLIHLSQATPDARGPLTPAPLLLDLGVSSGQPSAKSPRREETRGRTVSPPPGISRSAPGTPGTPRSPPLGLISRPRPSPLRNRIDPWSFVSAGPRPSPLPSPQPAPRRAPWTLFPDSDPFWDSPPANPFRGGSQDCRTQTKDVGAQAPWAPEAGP

SMILES | protection of neurons from lethal effects of HIV-1 gp120 [1] | Tat and gp120 induced autophosphorylation of MLK3 (MLK3) | neuroprotection in vivo (HIV-1) | Rab7 protein regulation (Rab7) | neuroprotection to the synapse (Tat; Compound AH 10 mg/kg i.p. q 12, 9 μg of Tat injected) | neuroinflammation (Tat; FIGS. 10-24) | HIV-1 viral load (HIV-1 ADA) | microglial activation in EAE hippocampus (MOG35-55 EAE mice; EAE hippocampus) | synaptic structure in EAE hippocampus (MOG35-55 EAE mice; EAE hippocampus) | EAE motor deficits (MOG35-55 EAE mice; treatment at onset of clinical disease) | tat-induced cytokine production (Human monocytes; FIG. 11) | tat-induced chemokine production (Human monocytes; FIG. 12) | time for which atazanavir/ritonavir nanoART drug levels in late endosomes are increased ([2]; 1 and 10 ng/mL of Compound AH, FIG. 25) | drug levels in Rab compartments ([2]; Compound AH induction)
CCSCc1ccc2c(c1)c1c3c(c4c5cc(CSCC)ccc5n5c4c1n2[C@H]1C[C@](O)(C(=O)OC)[C@]5(C)O1)CNC3=O (relative stereo) [CEP1347, 3,9-bis[(ethylthio)methyl]-(8R*,9S*, 11S*)-(−)-9-hydroxy-9-methoxycarbonyl-8-methyl-2,3,9,10-tetrahydro-8,11-epoxy-1H,8H, 11H-2,7b,11a-triazadibenzo(a,g)cycloocta(cde)trinden-1-one] | can protect primary rat hippocampal neurons as well as dorsal root ganglion neurons | abolished | neuroprotective | – | – | – | – | – | – | – | – | – | – | –
CN1CCN(Cc2ccc(-c3cnc4[nH]cc(-c5ccc6[nH]ccc6c5)c4c3)cc2)CC1 [Compound AH] | – | – | – | induced the RAS-related GTP-binding protein Rab7 | provides neuroprotection to the synapse | anti-neuroinflammatory | modest reducing in HIV-1 viral load | attenuates microglial activation | protects synaptic structure | no effect on EAE motor deficits | blocks tat-induced cytokine production | blocks tat-induced chemokine production | more than 10 days | general increase in drug levels was seen in all Rab compartments
